Some results are limits rather than exact numbers.

As usually defined, the IC50 is the concentration needed to halve the response being measured. A higher IC50 goes with lower potency.

A short description of data set [1]: Kinetic solubility of compound in PBS at pH 7.4 incubated for 24 hrs by HPLC analysis. It counts as physicochemical. Particulars: buffer, pH 7.4, 24 h.
The target in data set [2] is Casein kinase II subunit alpha' (Homo sapiens, UniProt P19784). The data set is described as follows: Inhibition of NLuc-fused CSNK2A2 (unknown origin) expressed in HEK293 cells incubated for 2 hrs by NanoBRET assay. It counts as cell-based. On the technique in general: BRET reads energy transfer from a luciferase to a nearby fluorophore.
In data set [3] the test system is Murine hepatitis virus. The data set is described as follows: Antiviral activity against Murine hepatitis virus infected in mouse DBT cells preincubated with cells for 1 hrs followed by viral infection and measured after 10 hrs by luminometer. It is filed as functional, organism-based. Particulars: Murine coronavirus.

Sequence of Casein kinase II subunit alpha' (P19784 whole entry, the tested form may be a part): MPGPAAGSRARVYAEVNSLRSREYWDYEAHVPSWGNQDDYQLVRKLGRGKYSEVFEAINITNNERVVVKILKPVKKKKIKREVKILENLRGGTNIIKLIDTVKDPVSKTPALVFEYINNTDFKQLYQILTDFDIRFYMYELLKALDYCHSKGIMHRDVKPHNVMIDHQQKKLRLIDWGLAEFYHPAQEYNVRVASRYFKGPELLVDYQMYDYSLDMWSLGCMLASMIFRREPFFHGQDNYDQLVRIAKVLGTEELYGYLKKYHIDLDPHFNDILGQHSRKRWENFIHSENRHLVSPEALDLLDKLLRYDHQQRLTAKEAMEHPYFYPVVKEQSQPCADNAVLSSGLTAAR

The molecule `CN(C)CCn1ccc(Nc2cc(Nc3cccc(-n4cnnc4)c3)nc3c(C#N)cnn23)n1` came in with a Kinetic_solubility in data set [1] of 21 µg/mL. Further, the IC50 in data set [2] was 31.6 nM; in data set [3], 5010 nM.
Take `CP(C)(=O)Cc1cccc(Nc2cc(NC3CC3)n3ncc(C#N)c3n2)c1`: the IC50 in data set [2] is 631 nM; in data set [3] it was 7940 nM.
As for `N#Cc1cnn2c(Nc3cn(CCN4CCOCC4)cn3)cc(Nc3cccc(-n4cnnc4)c3)nc12`, in data set [1], the Kinetic_solubility came to 4.2 µg/mL. The IC50 in data set [2] was 5010 nM; in data set [3], over 10000 nM.
On to `N#Cc1cnn2c(NC3CC3)cc(Nc3cccc(-c4cnccn4)c3)nc12`, for which the IC50 in data set [2] and in data set [3] was over 10000 nM throughout.
With `N#Cc1cnn2c(NC3CC3)cc(Nc3cccc(-c4nccs4)c3)nc12`, the figures for the IC50 in data set [2] and in data set [3] were 794 nM and 2510 nM, respectively.
The like results for `N#Cc1cnn2c(NC3CC(F)(F)C3)cc(Nc3cccc(-n4cnnc4)c3)nc12` were, in that order, 398 nM and over 10000 nM.
The molecule `CC(=O)Nc1cccc(Nc2cc(NC3CC3)n3ncc(C#N)c3n2)c1` displayed a Kinetic_solubility in data set [1] of 2.8 µg/mL. For the same molecule, the IC50 in data set [3] is 158 nM.
Take `N#Cc1cnn2c(NC3COC3)cc(Nc3cccc(-n4cnnc4)c3)nc12`: the IC50 in data set [2] was 251 nM; in data set [3], over 10000 nM.
The like results for `N#Cc1cnn2c(NC3CC3)cc(Nc3cccc(CCO)c3)nc12` were, in that order, 631 nM and 7940 nM.
The like results for `CN(CCN1CCCC1)c1ccc(Nc2cc(NC3CC3)n3ncc(C#N)c3n2)cc1-n1cnnc1` were, in that order, 50.1 nM and 10000 nM.
Taken in the same sequence, the figures for `N#Cc1cnn2c(NC3CC3)cc(Nc3cccc(-n4ccnn4)c3)nc12` were 501 nM and 3160 nM.
In turn, `N#Cc1cnn2c(Nc3ccn(CCN4CCOCC4)n3)cc(Nc3cccc(-n4cnnc4)c3)nc12` showed a Kinetic_solubility in data set [1] of 4 µg/mL. Moreover, the IC50 is 79.4 nM in data set [2] and 1000 nM in data set [3].
The like results for `N#Cc1cnn2c(NC3CC3)cc(Nc3ccc(N4CCC[C@H](N)C4)c(-n4cnnc4)c3)nc12` were, in that order, 47 µg/mL, 126 nM and 631 nM.
For the molecule `N#Cc1cnn2c(NC3CC3)cc(Nc3cccc(C(=O)O)c3)nc12`, the IC50 in data set [2] and in data set [3] was over 10000 nM each time.
Molecule `Cn1cnc(Nc2cc(Nc3cccc(-n4cnnc4)c3)nc3c(C#N)cnn23)c1` showed a Kinetic_solubility in data set [1] of 3.1 µg/mL. Moreover, the half-inhibitory concentration (IC50) in data set [2] was 79.4 nM; in data set [3] it was 794 nM.
As to `C[S+]([O-])Cc1cccc(Nc2cc(NC3CC3)n3ncc(C#N)c3n2)c1` (centres undefined), the half-inhibitory concentration (IC50) was 39.8 nM in data set [2] and 398 nM in data set [3].
Turning to `N#Cc1cnn2c(NC3CC3)cc(Nc3cccc(-c4ccccn4)c3)nc12`, the 50% inhibitory concentration (IC50) is 5010 nM in data set [2] and over 10000 nM in data set [3].
The like results for `CC(C)(C#N)c1cccc(Nc2cc(NC3CC3)n3ncc(C#N)c3n2)c1` were, in that order, 794 nM and over 10000 nM.
Turning to `Cc1nccn1-c1cccc(Nc2cc(NC3CC3)n3ncc(C#N)c3n2)c1`, the half-maximal inhibitory concentration (IC50) in data set [2] is 31.6 nM; in data set [3] it was over 10000 nM.
Taken in the same sequence, the figures for `Cc1nncn1-c1cccc(Nc2cc(NC3CC3)n3ncc(C#N)c3n2)c1` were 39.8 nM and 631 nM.
Taken in the same sequence, the figures for `N#Cc1cnn2c(NCC3CCOC3)cc(Nc3cccc(-n4cnnc4)c3)nc12` (centres undefined) were over 10000 nM and 5010 nM.
As to `N#Cc1cnn2c(NCC3CCOCC3)cc(Nc3cccc(-n4cnnc4)c3)nc12`, the half-maximal inhibitory concentration (IC50) in data set [2] and in data set [3] was over 10000 nM in each case.
Regarding `CS(=O)(=O)Cc1cccc(Nc2cc(NC3CC3)n3ncc(C#N)c3n2)c1`, the IC50 in data set [2] was 50.1 nM; in data set [3] it was 158 nM.
`CN1CCN(c2ccc(Nc3cc(NC4CC4)n4ncc(C#N)c4n3)cc2-n2cnnc2)CC1` gave a Kinetic_solubility in data set [1] of 0.2 µg/mL. Besides, the results for the half-maximal inhibitory concentration (IC50) in data set [2] and in data set [3] were 158 nM and 5010 nM, respectively.
The like results for `N#Cc1cnn2c(NC3CC3)cc(Nc3cc(-n4cnnc4)c(N4CC[C@H](N)C4)cc3F)nc12` were, in that order, 37 µg/mL, 251 nM and 2000 nM.
`CS(=N)(=O)Cc1cccc(Nc2cc(NC3CC3)n3ncc(C#N)c3n2)c1` (centres undefined) had an IC50 in data set [3] of at least 10000 nM.
`CCN(CCN)c1cc(F)c(Nc2cc(NC3CC3)n3ncc(C#N)c3n2)cc1-n1cnnc1` came in with a Kinetic_solubility in data set [1] of 39 µg/mL. For the same molecule, the figures for the IC50 in data set [2] and in data set [3] were 501 nM and 1580 nM, respectively.
Taken in the same sequence, the figures for `CNCCn1ccc(Nc2cc(Nc3cccc(-n4cnnc4)c3)nc3c(C#N)cnn23)n1` were 2.1 µg/mL, 79.4 nM and over 10000 nM.
`CCNCCN(C)c1ccc(Nc2cc(NC3CC3)n3ncc(C#N)c3n2)cc1-n1cnnc1`: the IC50 was 631 nM in data set [2] and 7940 nM in data set [3].
The like results for `N#Cc1cnn2c(NCCO)cc(Nc3cccc(-n4cnnc4)c3)nc12` were, in that order, over 10000 nM and over 10000 nM.
The like results for `N#Cc1cnn2c(NC3CC3)cc(Nc3cccc(-c4nn[nH]n4)c3)nc12` were, in that order, over 10000 nM and 2510 nM.
The like results for `N#Cc1cnn2c(NC3CC3)cc(Nc3cccc(Cn4cnnc4)c3)nc12` were, in that order, 3980 nM and over 10000 nM.
With `CC(C)(O)Cc1cccc(Nc2cc(NC3CC3)n3ncc(C#N)c3n2)c1`, the figures for the IC50 in data set [2] and in data set [3] were 398 nM and 7940 nM, respectively.
In data set [1], `N#Cc1cnn2c(NC3CC3)cc(Nc3ccc(N4CC[C@@H](N)C4)c(-n4cnnc4)c3)nc12` gave a Kinetic_solubility of 44 µg/mL. Further, the values for the IC50 in data set [2] and in data set [3] were 251 nM and 2510 nM, respectively.
As to `Cn1cc(CNc2cc(Nc3cccc(-n4cnnc4)c3)nc3c(C#N)cnn23)cn1`, the IC50 in data set [2] and in data set [3] was over 10000 nM in each case.
Consider `CS(=O)(=O)Nc1cccc(Nc2cc(NC3CC3)n3ncc(C#N)c3n2)c1`, for which the figures for the concentration for half-maximal inhibition (IC50) in data set [2] and in data set [3] were 126 nM and 794 nM, respectively.
Taken in the same sequence, the figures for `CC(=O)N1CCC(Nc2cc(Nc3cccc(-n4cnnc4)c3)nc3c(C#N)cnn23)CC1` were over 10000 nM and over 10000 nM.
The like results for `N#Cc1cnn2c(NC3CC3)cc(Nc3cccc(-n4ncnn4)c3)nc12` were, in that order, 200 nM and over 10000 nM.
Turning to `N#Cc1cnn2c(NC3CC3)cc(Nc3cccc(-c4ncns4)c3)nc12`, the IC50 in data set [2] was 50.1 nM; in data set [3] it was over 10000 nM.
As to `N#Cc1cnn2c(NC3CC3)cc(Nc3cccc(-n4cc[nH]c4=O)c3)nc12`, the IC50 in data set [2] and in data set [3] was over 10000 nM in each case.
As to `N#Cc1cnn2c(NC3CC3)cc(Nc3cccc(-n4cnnn4)c3)nc12`, the concentration for half-maximal inhibition (IC50) in data set [2] was 5.01 nM; in data set [3], over 10000 nM.
The like results for `N#Cc1cnn2c(NC3CC3)cc(Nc3cccc(-c4nnco4)c3)nc12` were, in that order, 631 nM and 10000 nM.
Consider `CN[C@@H]1CCCN(c2cc(F)c(Nc3cc(NC4CC4)n4ncc(C#N)c4n3)cc2-n2cnnc2)C1`, for which the IC50 is 158 nM in data set [2] and 1580 nM in data set [3].
Taken in the same sequence, the figures for `Cn1cnnc1-c1cccc(Nc2cc(NC3CC3)n3ncc(C#N)c3n2)c1` were over 10000 nM and over 10000 nM.
With `N#Cc1cnn2c(NC3CC3)cc(Nc3ccc(N4CCOCC4)c(-n4cnnc4)c3)nc12`, the Kinetic_solubility in data set [1] stood at 1.1 µg/mL. In data set [3], this molecule had an IC50 of 126 nM.
